Assay results from patent publication US9718792B2, “Isoxazoline hydroxamic acid derivatives as LpxC inhibitors” (priority 2014, dated 2017).
≈ marks a conversion by molar mass, not a printed value. Like-named read-outs stand apart in the source and are kept apart here.

Key:
[1] = target: P. aeruginosa LpxC (Pseudomonas aeruginosa (strain ATCC 15692 / DSM 22644 / CIP 104116 / JCM 14847 / LMG 12228 / 1C / PRS 101 / PAO1), UniProt P47205); test: P. aeruginosa LpxC Inhibition Assay; type: biochemical; conditions: 1 nM P. aeruginosa LpxC, 2 μM substrate, LC-MS/MS; read-out: PA LpxC IC50
Text: The P. aeruginosa LpxC protein is produced according to the general method of Hyland et al (Journal of Bacteriology 1997 179, 2029-2037: Cloning, expression and purification of UDP-3-O-acyl-GIcNAc deacetylase from Pseudomonas aeruginosa: a metalloamidase of the lipid A biosynthesis pathway). The LC-MS/MS method for quantitation of LpxC product was developed using an Agilent 1200 Capillary HPLC system coupled to an Applied Biosystems MDS Sciex 4000QTRAP mass spectrometer. Both instruments are controlled using the Applied Biosystems MDS Sciex Analyst software. LpxC reaction product (UDP-3-O—(R-3-hydroxyacyl)-glucosamine) was produced by hydrolysis of LpxC substrate catalyzed by P.a. LpxC and purified using reversed phase chromatography on a Phenomenex Luna C18(2) 4.6×50 mm column. An LpxC product calibration curve was generated to evaluate the sensitivity and dynamic range of the LC-MS/MS method. Briefly, compounds are pre-incubated with 1 nM P. aeruginosa LpxC for 30 min. at room temperature. Reactions are initiated by the addition of 2 μM UDP-3-O—(R-3-hydroxydecanoyl)-GIcNAc. Reactions are conducted in a 384-well plate with a total volume of 50 μL in each well containing 50 mM Sodium phosphate pH 7.5, 0.005% Trition X-100 for 20 min at room temperature. After quenching with 1.8% HOAc (5 μL of a 20% HOAc added to each well), reaction mixtures are analyzed using the LC-MS/MS method and peak areas are transformed into product concentration using a LpxC product calibration curve. Total activity (0% inhibition control) is obtained from reactions with no inhibitors and 100% inhibition control is the background using quenched samples before reaction starts. For IC50 determinations, peak areas are converted to percent inhibition in Microsoft Excel. Percent inhibition values are plotted vs. log compound concentration using XLfit. Data is fit to the four-parameter logistic equation using the non-linear regression algorithm in XLfit to return the IC50 and hill slope values.

[2] = system: P. aeruginosa PAO1; test: Susceptibility Testing (MIC, broth microdilution); type: cell-based, Pseudomonas aeruginosa; conditions: Pseudomonas aeruginosa, PAO1, 20 h, read-out: PAO1 MIC
Protocol: Bacterial isolates were cultivated from −70° C. frozen stocks by two consecutive overnight passages at 35° C. in ambient air on 5% blood agar (Remel, Lenexa, Kans.). Quality control and P. aeruginosa ATCC 27853) is from the American Type Culture Collection (ATCC; Rockville, Md.) and PAO1 was received from Dr. K. Poole.
Minimal Inhibitory Concentrations (MICs) were determined by the broth microdilution method in accordance with Clinical and Laboratories Institute (CLSI) guidelines. In brief, fresh bacterial overnight cultures were resuspended in sterile saline, adjusted to a 0.5 McFarland turbidity standard and then diluted […] in cation adjusted Mueller-Hinton Broth II (MHB; Remel BBL) to yield a final inoculum of approximately 5×10^5 colony-forming units (CFU)/mL. Two-fold serial dilutions of compounds were prepared in 100% dimethyl sulfoxide (DMSO) at 100-fold the highest final assay concentration; the resulting dilution series of compounds were diluted 1:10 with sterile water. Ten μl of the drug dilution series in 10% DMSO was transferred to microtiter wells and 90 μl of bacterial suspension was inoculated into the wells. All inoculated microdilution trays were incubated in ambient air at […] for 20 hours. Following incubation, assay plates were read in a microtiter plate reader at 600 nm and visually inspected to confirm the MIC endpoint well with the OD value. The lowest concentration of the compound that prevented visible growth was recorded as the MIC. Performance of the assay was monitored by testing ciprofloxacin against laboratory quality control strains in accordance with guidelines of the CLSI.

[3] = P. aeruginosa PAO1, broth microdilution, 20 hours

Row | SMILES | IC50 [1] | MIC [2, 3] | MIC [2]
1 | CC(CC1CC(c2ccc(Br)cc2)=NO1)(C(=O)NO)S(C)(=O)=O (single isomer, unassigned) [Compound 1-B, 3-(3-(4-bromophenyl)-4,5-dihydroisoxazol-5-yl)-N-hydroxy-2-methyl-2-(methylsulfonyl)propanamide] | < 0.5 nM | 1 µg/mL (≈ 2.47 µM) | –
2 | CC#CCOc1ccc(C2=NOC(CC(C)(C(=O)NO)S(C)(=O)=O)C2)cc1 (single isomer, unassigned) [Compound 4-B, 3-(3-(4-(but-2-yn-1-yloxy)phenyl)-4,5-dihydroisoxazol-5-yl)-N-hydroxy-2-methyl-2-(methylsulfonyl)propanamide] | 24 nM | – | 8 µg/mL (≈ 20.3 µM)
3 | CC(CC1CC(c2ccc(C3CC3)cc2)=NO1)(C(=O)NO)S(C)(=O)=O (single isomer, unassigned) [Compound 5-A, 3-(3-(4-cyclopropylphenyl)-4,5-dihydroisoxazol-5-yl)-N-hydroxy-2-methyl-2-(methylsulfonyl)propanamide] | 7 nM | 2 µg/mL (≈ 5.46 µM) | –
4 | CCC#Cc1ccc(C2=NOC(CC(C)(C(=O)NO)S(C)(=O)=O)C2)cc1 (single isomer, unassigned) [Compound 8-B, 3-(3-(4-(but-1-yn-1-yl)phenyl)-4,5-dihydroisoxazol-5-yl)-N-hydroxy-2-methyl-2-(methylsulfonyl)propanamide] | 0.5 nM | 1 µg/mL (≈ 2.64 µM) | –
5 | CC#Cc1ccc(C2=NOC(CC(C)(C(=O)NO)S(C)(=O)=O)C2)nc1 (single isomer, unassigned) [Compound 14-B, N-hydroxy-2-methyl-2-(methylsulfonyl)-3-(3-(5-(prop-1-yn-1-yl)pyridin-2-yl)-4,5-dihydroisoxazol-5-yl)propanamide] | 17 nM | 8 µg/mL (≈ 21.9 µM) | –
6 | CC(CC1CC(c2ccc(C#CC3CC3)cn2)=NO1)(C(=O)NO)S(C)(=O)=O (single isomer, unassigned) [Compound 15-B, 3-(3-(5-(cyclopropylethynyl)pyridin-2-yl)-4,5-dihydroisoxazol-5-yl)-N-hydroxy-2-methyl-2-(methylsulfonyl)propanamide] | 4 nM | 8 µg/mL (≈ 20.4 µM) | –
7 | C[C@@](C[C@H]1CC(c2ccc(-c3ccc(C4(CO)CC4)cc3)cc2)=NO1)(C(=O)NO)S(C)(=O)=O [Compound 73, (R)—N-hydroxy-3-((R)-3-(4′-(1-(hydroxymethyl)cyclopropyl)-[1,1′-biphenyl]-4-yl)-4,5-dihydroisoxazol-5-yl)-2-methyl-2-(methylsulfonyl)propanamide] | – | 0.25 µg/mL (≈ 0.529 µM) | –
8 | COc1cc(-c2ccc(C3=NO[C@@H](C[C@](C)(C(=O)NO)S(C)(=O)=O)C3)cc2)c(F)cn1 [Compound 80, (R)-3-((R)-3-(4-(5-fluoro-2-methoxypyridin-4-yl)phenyl)-4,5-dihydroisoxazol-5-yl)-N-hydroxy-2-methyl-2-(methylsulfonyl) propanamide] | – | 1 µg/mL (≈ 2.21 µM) | –
9 | C[C@@](C[C@H]1CC(c2ccc(C#Cc3ccc([C@@H](O)CO)cc3)cc2)=NO1)(C(=O)NO)S(C)(=O)=O [Compound 97, (R)-3-((R)-3-(4-((4-((R)-1,2-dihydroxyethyl)phenyl)ethynyl)phenyl)-4,5-dihydroisoxazol-5-yl)-N-hydroxy-2-methyl-2-(methylsulfonyl) propanamide] | – | 0.71 µg/mL (≈ 1.46 µM) | –
10 | C[C@@](C[C@H]1CC(c2ccc(-c3ccc(CO)nc3)c(F)c2)=NO1)(C(=O)NO)S(C)(=O)=O [Compound 109, (R)-3-((R)-3-(3-fluoro-4-(6-(hydroxymethyl)pyridin-3-yl)phenyl)-4,5-dihydroisoxazol-5-yl)-N-hydroxy-2-methyl-2-(methylsulfonyl)propanamide] | 5 nM | – | –

Second part, led by results:

Row | IC50 [1] | MIC [2, 3] | SMILES | MIC [2]
11 | 1 nM | 0.25 µg/mL (≈ 0.621 µM) | CC(CC1CC(c2ccc(-c3ccccc3)cc2)=NO1)(C(=O)NO)S(C)(=O)=O (single isomer, unassigned) [Compound 3-B, 3-(3-([1,1′-biphenyl]-4-yl)-4,5-dihydroisoxazol-5-yl)-N-hydroxy-2-methyl-2-(methylsulfonyl)propanamide] | –
12 | < 0.5 nM | 1 µg/mL (≈ 2.54 µM) | CC(CC1CC(c2ccc(C#CCCO)cc2)=NO1)(C(=O)NO)S(C)(=O)=O (single isomer, unassigned) [Compound 10-B, N-hydroxy-3-(3-(4-(4-hydroxybut-1-yn-1-yl)phenyl)-4,5-dihydroisoxazol-5-yl)-2-methyl-2-(methylsulfonyl)propanamide] | –
13 | 2 nM | 2 µg/mL (≈ 5.23 µM) | CC#Cc1ccc(C2=NOC(CC(C)(C(=O)NO)S(C)(=O)=O)C2)cc1F (single isomer, unassigned) [Compound 12-B, 3-(3-(3-fluoro-4-(prop-1-yn-1-yl)phenyl)-4,5-dihydroisoxazol-5-yl)-N-hydroxy-2-methyl-2-(methylsulfonyl)propanamide] | –
14 | 1 nM | 1 µg/mL (≈ 2.45 µM) | CC(CC1CC(c2ccc(C#CC3CC3)c(F)c2)=NO1)(C(=O)NO)S(C)(=O)=O (single isomer, unassigned) [Compound 13-B, 3-(3-(4-(cyclopropylethynyl)-3-fluorophenyl)-4,5-dihydroisoxazol-5-yl)-N-hydroxy-2-methyl-2-(methylsulfonyl)propanamide] | –
15 | 0.6 nM | 1 µg/mL (≈ 2.61 µM) | CC#Cc1ccc(C2=NOC(CC(C)(C(=O)NO)S(C)(=O)=O)C2)c(F)c1 (single isomer, unassigned) [Compound 16-B, 3-(3-(2-fluoro-4-(prop-1-yn-1-yl)phenyl)-4,5-dihydroisoxazol-5-yl)-N-hydroxy-2-methyl-2-(methylsulfonyl)propanamide] | –
16 | < 0.5 nM | 0.5 µg/mL (≈ 1.22 µM) | CC(CC1CC(c2ccc(C#CC3CC3)cc2F)=NO1)(C(=O)NO)S(C)(=O)=O (single isomer, unassigned) [Compound 17-B, 3-(3-(4-(cyclopropylethynyl)-2-fluorophenyl)-4,5-dihydroisoxazol-5-yl)-N-hydroxy-2-methyl-2-(methylsulfonyl)propanamide] | –
17 | 0.8 nM | 0.25 µg/mL (≈ 0.686 µM) | CC#Cc1ccc(C2=NO[C@@H](C[C@](C)(C(=O)NO)S(C)(=O)=O)C2)cc1 [Compound 2-A, (R)—N-hydroxy-2-methyl-2-(methylsulfonyl)-3-((R)-3-(4-(prop-1-yn-1-yl)phenyl)-4,5-dihydroisoxazol-5-yl)propanamide] | –
18 | 0.7 nM | 0.25 µg/mL (≈ 0.64 µM) | C[C@@](C[C@H]1CC(c2ccc(C#CC3CC3)cc2)=NO1)(C(=O)NO)S(C)(=O)=O [Compound 6-A, (R)-3-((R)-3-(4-(cyclopropylethynyl)phenyl)-4,5-dihydroisoxazol-5-yl)-N-hydroxy-2-methyl-2-(methylsulfonyl)propanamide] | –
19 | – | 0.25 µg/mL (≈ 0.525 µM) | C[C@@H](O)COc1ccc(-c2ccc(C3=NO[C@@H](C[C@](C)(C(=O)NO)S(C)(=O)=O)C3)cc2)cc1 [Compound 61, (R)—N-hydroxy-3-((R)-3-(4′-((R)-2-hydroxypropoxy)-[1,1′-biphenyl]-4-yl)-4,5-dihydroisoxazol-5-yl)-2-methyl-2-(methylsulfonyl)propanamide] | –
20 | – | 0.35 µg/mL (≈ 0.757 µM) | C[C@@](C[C@H]1CC(c2ccc(-c3ccc(C(O)CO)cc3)cc2)=NO1)(C(=O)NO)S(C)(=O)=O (stereo partly drawn) [Compound 72, (2R)-3-((5R)-3-(4′-(1,2-dihydroxyethyl)-[1,1′-biphenyl]-4-yl)-4,5-dihydroisoxazol-5-yl)-N-hydroxy-2-methyl-2-(methylsulfonyl)propanamide] | –
21 | 1 nM | – | COc1ccc(-c2ccc(C3=NO[C@@H](C[C@](C)(C(=O)NO)S(C)(=O)=O)C3)cc2F)cn1 [Compound 105, (R)-3-((R)-3-(3-fluoro-4-(6-methoxypyridin-3-yl)phenyl)-4,5-dihydroisoxazol-5-yl)-N-hydroxy-2-methyl-2-(methylsulfonyl)propanamide] | –
